Where no end group is shown, it is not given here. The star is where a group is joined. Palmitoyl = CCCCCCCCCCCCCCCC(=O)*
Assay: Compound gel-forming ability in water (visual inspection, tube tapping assay, tilted tube assay);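 further: peptides mixed with de-ionized water at about 22-25 °C, judged after 20 min by eye plus tube tapping (10 taps, moves counted) and 90° tilt mobility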
Type: physicochemical
Details: for Physical property at 11% w/w: 11% w/w in aqueous solution, room temperature; for gel formation in aqueous solution, 3% / propensity to form gels, chimeric or mutated polypeptides, 3%: 3% w/w; for gel formation in aqueous solution, 6% / propensity to form gels, chimeric or mutated polypeptides, 6%: 6% w/w; for gel formation in aqueous solution, 11% / propensity to form gels, chimeric or mutated polypeptides, 11%: 11% w/w; for propensity to form gels, chimeric or mutated polypeptides, 3% / propensity to form gels, chimeric or mutated polypeptides, 6% / propensity to form gels, chimeric or mutated polypeptides, 11% / propensity to form gels, chimeric or mutated polypeptides, 20%: Table 5; for gel formation at 6% w/w: 6% w/w in water; for gel formation at 11% w/w: 11% w/w in water; for gel formation at 3% w/w: 3% w/w in water; for gel formation at 20% w/w: 20% w/w in water; for gel formation in aqueous solution, 20% / propensity to form gels, chimeric or mutated polypeptides, 20%: 20% w/w

| Substance | gel formation at 11% w/w | gel formation in aqueous solution, 6% (Table 3) | gel formation in aqueous solution, 11% (Table 3) | propensity to form gels, chimeric or mutated polypeptides, 6% | propensity to form gels, chimeric or mutated polypeptides, 11% | gel formation at 6% w/w | further results |
| --- | --- | --- | --- | --- | --- | --- | --- |
| Pal-KVQKLNFVPTNVGSKAY-NH2 (Palmitoyl-KVQKLNFVPTNVGSKAY-NH2; SMILES CCCCCCCCCCCCCCCC(=O)N[C@@H](CCCCN)C(=O)N[C@H](C(=O)N[C@@H](CCC(N)=O)C(=O)N[C@@H](CCCCN)C(=O)N[C@@H](CC(C)C)C(=O)N[C@@H](CC(N)=O)C(=O)N[C@@H](Cc1ccccc1)C(=O)N[C@H](C(=O)N1CCC[C@H]1C(=O)N[C@H](C(=O)N[C@@H](CC(N)=O)C(=O)N[C@H](C(=O)NCC(=O)N[C@@H](CO)C(=O)N[C@@H](CCCCN)C(=O)N[C@@H](C)C(=O)N[C@@H](Cc1ccc(O)cc1)C(N)=O)C(C)C)[C@@H](C)O)C(C)C)C(C)C) [SEQ ID NO:139] | – | – | – | – | – | – | Physical property at 11% w/w (Table 2): SS (SS for semisolid gel) |
| Pal-KVQKLSAPVDPSSPHSY-miniPEG-(D-Tyr)QWAV(β-Ala)HF(Nle)-NH2 [SEQ ID NO:209] | – | SS (SS for semisolid gel) | SS (SS for semisolid gel) | SS (An ability to form semisolid gel is represented by an SS) | SS (An ability to form semisolid gel is represented by an SS) | – | gel formation in aqueous solution, 3% (Table 3): SS (SS for semisolid gel); propensity to form gels, chimeric or mutated polypeptides, 3%: SS (An ability to form semisolid gel is represented by an SS) |
| Pal-KVQKLSAPVDPSSPHSY-miniPEG-CYFQNCPRG-NH2 [SEQ ID NO:204] | semisolid gel | SS (SS for semisolid gel) | SS (SS for semisolid gel) | SS (An ability to form semisolid gel is represented by an SS) | SS (An ability to form semisolid gel is represented by an SS) | semisolid gel | – |
| Pal-KVQKLSAPVDPSSPHSY-miniPEG-CYIQNCPLG-NH2 [SEQ ID NO:205] | semisolid gel | – | SS (SS for semisolid gel) | – | SS (An ability to form semisolid gel is represented by an SS) | liquid gel | – |
| Pal-KVQKLSAPVDPSSPHSY-miniPEG-EHWSY-(D-2Nal)-LRPG-NH2 [SEQ ID NO:201] | semisolid gel | SS (SS for semisolid gel) | SS (SS for semisolid gel) | SS (An ability to form semisolid gel is represented by an SS) | SS (An ability to form semisolid gel is represented by an SS) | semisolid gel | gel formation at 3% w/w: semisolid gel; gel formation in aqueous solution, 3% (Table 3): SS (SS for semisolid gel); propensity to form gels, chimeric or mutated polypeptides, 3%: SS (An ability to form semisolid gel is represented by an SS) |
| Pal-KVQKLSAPVDPSSPHSY-miniPEG-HAEGTFTSDVSSYLEGQAAKEFIAWLVKGR-NH2 [SEQ ID NO:220] | – | – | SS (SS for semisolid gel) | – | SS (An ability to form semisolid gel is represented by an SS) | – | – |
| Pal-KVQKLSAPVDPSSPHSY-miniPEG-RPKPQQFFGLM-NH2 [SEQ ID NO:215] | – | AS/IS (AS/IS for aqueous solution or insoluble) | SS (SS for semisolid gel) | AS/IS | SS (An ability to form semisolid gel is represented by an SS) | – | – |
| Pal-KVQKLSAPVDPSSPHSY-miniPEG-Y-(D-Ala)-GF(D-Leu)-NH2 [SEQ ID NO:212] | – | – | – | – | – | – | gel formation at 3% w/w: semisolid gels; gel formation in aqueous solution, 3% (Table 3): SS (SS for semisolid gel); propensity to form gels, chimeric or mutated polypeptides, 3%: SS (An ability to form semisolid gel is represented by an SS) |
| Pal-KVQKLSAPVDPSSPHSY-miniPEG-Y-(D-Met)-FHLMD-NH2 [SEQ ID NO:210] | semisolid gel | SS (SS for semisolid gel) | SS (SS for semisolid gel) | SS (An ability to form semisolid gel is represented by an SS) | SS (An ability to form semisolid gel is represented by an SS) | semisolid or liquid gel | – |
| Pal-KVQKLSAPVDPSSPHSY-miniPEG-YNWNSFGLRF-NH2 [SEQ ID NO:208] | – | – | – | – | – | – | gel formation in aqueous solution, 20% (Table 3): SS (SS for semisolid gel); propensity to form gels, chimeric or mutated polypeptides, 20%: SS (An ability to form semisolid gel is represented by an SS) |
| Pal-KVQNLSAPVDPSSPHSY-NH2 [SEQ ID NO:104] | – | – | – | – | – | – | Physical property at 11% w/w (Table 2): AS/IS (AS/IS for aqueous solution or insoluble) |
| Pal-QKLAHQIYQFTDKDVAPRSKISPQGY-NH2 (Palmitoyl-QKLAHQIYQFTDKDVAPRSKISPQGY-NH2; SMILES CCCCCCCCCCCCCCCC(=O)N[C@@H](CCC(N)=O)C(=O)N[C@@H](CCCCN)C(=O)N[C@@H](CC(C)C)C(=O)N[C@@H](C)C(=O)N[C@@H](Cc1c[nH]cn1)C(=O)N[C@@H](CCC(N)=O)C(=O)N[C@H](C(=O)N[C@@H](Cc1ccc(O)cc1)C(=O)N[C@@H](CCC(N)=O)C(=O)N[C@@H](Cc1ccccc1)C(=O)N[C@H](C(=O)N[C@@H](CC(=O)O)C(=O)N[C@@H](CCCCN)C(=O)N[C@@H](CC(=O)O)C(=O)N[C@H](C(=O)N[C@@H](C)C(=O)N1CCC[C@H]1C(=O)N[C@@H](CCCNC(=N)N)C(=O)N[C@@H](CO)C(=O)N[C@@H](CCCCN)C(=O)N[C@H](C(=O)N[C@@H](CO)C(=O)N1CCC[C@H]1C(=O)N[C@@H](CCC(N)=O)C(=O)NCC(=O)N[C@@H](Cc1ccc(O)cc1)C(N)=O)[C@@H](C)CC)C(C)C)[C@@H](C)O)[C@@H](C)CC) [SEQ ID NO:103] | – | – | – | – | – | – | Physical property at 11% w/w (Table 2): AS/IS (AS/IS for aqueous solution or insoluble) |
| Pal-SSPHSY-NH2 [SEQ ID NO:119] | – | – | – | – | – | – | Physical property at 11% w/w (Table 2): SS (SS for semisolid gel) |
| Pal-SSPHSY-miniPEG -SYS-Nle-EH-(D-Phe)-RWGKPV-NH2 [SEQ ID NO:223] | – | – | – | – | – | – | gel formation in aqueous solution, 20% (Table 3): SS (SS for semisolid gel) |
| Pal-SSPHSY-miniPEG-(D-Ala)-(D-(β-naphthyl))-AAW-(D-Phe)-Lys-NH2 [SEQ ID NO:235] | semisolid gel | SS (SS for semisolid gel) | SS (SS for semisolid gel) | SS (An ability to form semisolid gel is represented by an SS) | SS (An ability to form semisolid gel is represented by an SS) | semisolid gel | gel formation at 3% w/w: semisolid gel; gel formation in aqueous solution, 3% (Table 3): SS (SS for semisolid gel); propensity to form gels, chimeric or mutated polypeptides, 3%: SS (An ability to form semisolid gel is represented by an SS) |
| Pal-SSPHSY-miniPEG-(D-Arg)-Arg-Pro-Hyp-Gly-Thi-Ser-(D-Tic)-Oic-Arg [SEQ ID NO:233] | – | – | AS/IS (AS/IS for aqueous solution or insoluble) | – | – | – | gel formation at 30% w/w (30% w/w in water): semisolid gel; gel formation in aqueous solution, 30% (Table 3, 30% w/w): SS (SS for semisolid gel) |
| Pal-SSPHSY-miniPEG-EAYKAAEKAYAAKEAAKEAAKAKAEKKAAYAKAKAAKYEKKAKKAAAEYKKK ({Palmitoyl-Ser-Ser-Pro-H2N-Ser-Tyr-miniPEG}-EAYKAAEKAYAAKEAAKEAAKAKAEKKAAYAKAKAAKYEKKAKKAAAEYKKK) [SEQ ID NO:245] | – | – | AS/IS (AS/IS for aqueous solution or insoluble) | – | AS/IS | – | gel formation at 20% w/w: semisolid gel; gel formation in aqueous solution, 20% (Table 3): SS (SS for semisolid gel); propensity to form gels, chimeric or mutated polypeptides, 20%: SS (An ability to form semisolid gel is represented by an SS) |
| Pal-SSPHSY-miniPEG-FLPLIGRVLSGIL-NH2 ({Palmitoyl-Ser-Ser-Pro-H2N-Ser-Tyr-miniPEG}-FLPLIGRVLSGIL-NH2) [SEQ ID NO:243] | semisolid gel | AS/IS (AS/IS for aqueous solution or insoluble) | SS (SS for semisolid gel) | – | – | – | – |
| Pal-SSPHSY-miniPEG-HGDGSFSDEMNTILDNLAARDFINWLIQTKITD-OH [SEQ ID NO:222] | semisolid gel | – | SS (SS for semisolid gel) | – | SS (An ability to form semisolid gel is represented by an SS) | liquid gel | – |

Continued, in another order:

| gel formation at 11% w/w | Substance | gel formation in aqueous solution, 6% (Table 3) | gel formation in aqueous solution, 11% (Table 3) | propensity to form gels, chimeric or mutated polypeptides, 6% | propensity to form gels, chimeric or mutated polypeptides, 11% | gel formation at 6% w/w | further results |
| --- | --- | --- | --- | --- | --- | --- | --- |
| semisolid gel | Pal-KVQKLSAPVDPSSPHSY-miniPEG-CSNLSTCVLGKLSQELHKLQTYPRTNTGSGTP-NH2 [SEQ ID NO:217] | – | SS (SS for semisolid gel) | – | SS (An ability to form semisolid gel is represented by an SS) | liquid gel | – |
| liquid gel | Pal-KVQKLSAPVDPSSPHSY-miniPEG-Sar-RVYVHPA-NH2 [SEQ ID NO:216] | – | – | – | – | – | gel formation at 20% w/w: liquid gel |
| semisolid gel | Pal-RQSMNNFQGLRSFGCRFGTCTVQKLAHQIYQFTDKDKDNVAPRSKISPQGY-NH2 [SEQ ID NO:274] | SS (SS for semisolid gel) | SS (SS for semisolid gel) | SS (An ability to form semisolid gel is represented by an SS) | SS (An ability to form semisolid gel is represented by an SS) | semisolid gel | gel formation at 20% w/w: semisolid gel; Physical property at 11% w/w (Table 1): SS (SS for semisolid gel); gel formation in aqueous solution, 20% (Table 3): SS (SS for semisolid gel); propensity to form gels, chimeric or mutated polypeptides, 20%: SS (An ability to form semisolid gel is represented by an SS) |
| semisolid gel | Pal-SDAAVDTSSEITTKDLKEKKEVVEEAEN-NH2 [SEQ ID NO:268] | – | SS (SS for semisolid gel) | – | SS (An ability to form semisolid gel is represented by an SS) | – | – |

Source: patent US20200405868A1, “GEL-FORMING POLYPEPTIDES” (priority 2018, published 2020)
